Data set [1] has as its target T1, D3 receptor (Homo sapiens, UniProt P35462).
T1 construct: expressed in transfected cells; host or cells: CHOp- cells (CHOp-D3)
As to the kind of experiment: Inhibition of quinpirole-stimulated mitogenesis ([3H]thymidine incorporation), CHOp-D3 cells. In kind it is cell-based.

Data set [2] addresses T2, D2 receptor (Homo sapiens, UniProt P14416).
T2 construct: expressed in transfected cells; host or cells: CHOp- cells (CHOp-D2)
As to the kind of experiment: D2 receptor binding, CHOp- cells, [3H]YM-09151-2.

Data set [3] addresses T3, 5-HT1A receptor (Homo sapiens, UniProt P08908).
T3 construct: expressed in transfected cells; host or cells: HA7 cells
T3 sequence (P08908 1-422): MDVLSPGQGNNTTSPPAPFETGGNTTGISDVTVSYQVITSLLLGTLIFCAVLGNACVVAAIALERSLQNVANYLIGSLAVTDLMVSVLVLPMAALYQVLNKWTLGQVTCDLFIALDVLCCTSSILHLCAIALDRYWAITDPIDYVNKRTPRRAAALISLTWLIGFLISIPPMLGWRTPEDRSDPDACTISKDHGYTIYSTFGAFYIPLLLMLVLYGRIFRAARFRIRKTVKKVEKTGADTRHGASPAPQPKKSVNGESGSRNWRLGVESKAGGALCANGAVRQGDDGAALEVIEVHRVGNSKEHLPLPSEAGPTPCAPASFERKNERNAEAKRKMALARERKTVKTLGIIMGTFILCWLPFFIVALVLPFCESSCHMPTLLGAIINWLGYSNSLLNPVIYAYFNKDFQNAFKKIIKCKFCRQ
As to the kind of experiment: 5-HT1A receptor binding, HA7 cells, [3H]8-OH-DPAT.

Data set [4] addresses T4, 5-HT2C receptor (Rattus norvegicus, UniProt P08909).
T4 construct: expressed in transfected cells; host or cells: NIH-3T3-P cells
T4 sequence (P08909 33-460): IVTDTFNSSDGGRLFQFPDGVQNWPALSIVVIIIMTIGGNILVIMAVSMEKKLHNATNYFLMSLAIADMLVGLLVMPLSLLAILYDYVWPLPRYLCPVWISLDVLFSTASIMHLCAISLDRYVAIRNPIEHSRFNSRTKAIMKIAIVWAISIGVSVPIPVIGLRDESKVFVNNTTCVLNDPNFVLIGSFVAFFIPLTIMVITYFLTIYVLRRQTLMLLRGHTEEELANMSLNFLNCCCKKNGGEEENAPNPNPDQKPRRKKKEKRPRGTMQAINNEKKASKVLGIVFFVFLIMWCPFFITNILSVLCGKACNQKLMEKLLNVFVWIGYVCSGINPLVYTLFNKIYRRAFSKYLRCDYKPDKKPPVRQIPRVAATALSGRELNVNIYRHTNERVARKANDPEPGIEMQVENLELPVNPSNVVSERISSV
As to the kind of experiment: 5-HT2C receptor binding, NIH-3T3-P cells, [3H]mesulergine.

Data set [5] addresses T1, D3 receptor. As to the kind of experiment: D3 receptor binding, CHOp- cells, [3H]YM-09151-2.
The target of data set [6] is T2, D2 receptor. The data set can be described thus: cell-based. The note with it: read-out: D2 Antagonist activity IC50.
Data set [7] deals with T5, human dopamine transporter (hDAT) (Homo sapiens, UniProt Q01959). As to the kind of experiment: biochemical. It counts as binding. The note with it: for Binding Ratios NET/DAT / Binding Ratios SERT/DAT: Table 5.
T5 sequence (Q01959 whole entry): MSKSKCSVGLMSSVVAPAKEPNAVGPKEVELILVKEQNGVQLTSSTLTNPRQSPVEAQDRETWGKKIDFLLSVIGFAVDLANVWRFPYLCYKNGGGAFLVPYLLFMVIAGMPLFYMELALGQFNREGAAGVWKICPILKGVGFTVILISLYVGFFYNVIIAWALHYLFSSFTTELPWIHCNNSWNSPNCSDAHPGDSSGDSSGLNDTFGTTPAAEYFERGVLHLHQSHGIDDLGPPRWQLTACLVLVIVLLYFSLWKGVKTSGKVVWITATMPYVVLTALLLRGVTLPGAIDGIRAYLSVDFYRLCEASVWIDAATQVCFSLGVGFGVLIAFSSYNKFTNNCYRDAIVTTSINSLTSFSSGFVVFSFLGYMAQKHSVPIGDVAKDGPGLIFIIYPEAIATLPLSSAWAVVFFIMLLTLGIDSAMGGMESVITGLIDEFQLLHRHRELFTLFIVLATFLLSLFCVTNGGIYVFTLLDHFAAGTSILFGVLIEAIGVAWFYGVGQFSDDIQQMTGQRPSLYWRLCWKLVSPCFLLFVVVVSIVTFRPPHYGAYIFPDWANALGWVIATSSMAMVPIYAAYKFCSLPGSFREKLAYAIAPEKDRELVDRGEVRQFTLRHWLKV
The target of data set [8] is T6, D1 receptor (Homo sapiens, UniProt P21728).
T6 construct: expressed in transfected cells; host or cells: LHD1 cells
T6 sequence (P21728 whole entry): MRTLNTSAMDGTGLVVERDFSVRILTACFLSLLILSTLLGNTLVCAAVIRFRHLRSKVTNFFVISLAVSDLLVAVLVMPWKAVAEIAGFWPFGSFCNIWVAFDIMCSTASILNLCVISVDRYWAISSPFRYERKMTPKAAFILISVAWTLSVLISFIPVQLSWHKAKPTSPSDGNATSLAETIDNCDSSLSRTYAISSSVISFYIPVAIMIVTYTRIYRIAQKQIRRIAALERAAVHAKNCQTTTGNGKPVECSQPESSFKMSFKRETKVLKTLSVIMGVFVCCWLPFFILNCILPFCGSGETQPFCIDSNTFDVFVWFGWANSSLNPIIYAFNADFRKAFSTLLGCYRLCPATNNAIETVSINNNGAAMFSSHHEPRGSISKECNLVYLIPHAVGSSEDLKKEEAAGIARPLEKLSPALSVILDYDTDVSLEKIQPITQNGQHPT
The data set can be described thus: D1 receptor binding, LHD1 cells, [3H]SCH 23,390.

For data set [9], the target named is T7, 5-HT2A receptor (Rattus norvegicus, UniProt P14842).
T7 construct: expressed in transfected cells; host or cells: NIH-3T3-GF6 cells
T7 sequence (P14842 whole entry): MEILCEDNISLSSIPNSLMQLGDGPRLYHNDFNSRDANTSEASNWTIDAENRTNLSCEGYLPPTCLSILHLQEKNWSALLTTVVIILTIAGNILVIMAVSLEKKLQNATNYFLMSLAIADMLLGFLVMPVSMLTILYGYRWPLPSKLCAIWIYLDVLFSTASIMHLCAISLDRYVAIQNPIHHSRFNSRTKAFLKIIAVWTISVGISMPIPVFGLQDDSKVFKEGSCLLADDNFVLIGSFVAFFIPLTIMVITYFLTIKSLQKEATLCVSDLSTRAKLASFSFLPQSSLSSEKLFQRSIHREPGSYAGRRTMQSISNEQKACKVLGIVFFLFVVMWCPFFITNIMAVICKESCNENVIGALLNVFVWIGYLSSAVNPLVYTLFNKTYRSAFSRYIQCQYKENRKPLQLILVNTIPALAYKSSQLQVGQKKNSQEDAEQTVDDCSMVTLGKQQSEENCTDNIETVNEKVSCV
The data set can be described thus: 5-HT2A receptor binding, NIH-3T3-GF6 cells, [3H]ketanserin.

Data set [10] has as its target T5, human dopamine transporter (hDAT). As to the kind of experiment: cell-based. The note with it: for Discrimination Ratios (DR) [3H]DA reuptake/DAT binding: Table 6; for IC50: Reuptake Inhibition [3H]DA IC50, Table 6.
In data set [11] the target is T8, human norepinephrine transporter (hNET) (Homo sapiens, UniProt P23975). The data set can be described thus: biochemical. Conditions: Table 5; [125I]RTI-55; oxalate salts; read-out: NET binding affinity Ki.
T8 sequence (P23975 whole entry): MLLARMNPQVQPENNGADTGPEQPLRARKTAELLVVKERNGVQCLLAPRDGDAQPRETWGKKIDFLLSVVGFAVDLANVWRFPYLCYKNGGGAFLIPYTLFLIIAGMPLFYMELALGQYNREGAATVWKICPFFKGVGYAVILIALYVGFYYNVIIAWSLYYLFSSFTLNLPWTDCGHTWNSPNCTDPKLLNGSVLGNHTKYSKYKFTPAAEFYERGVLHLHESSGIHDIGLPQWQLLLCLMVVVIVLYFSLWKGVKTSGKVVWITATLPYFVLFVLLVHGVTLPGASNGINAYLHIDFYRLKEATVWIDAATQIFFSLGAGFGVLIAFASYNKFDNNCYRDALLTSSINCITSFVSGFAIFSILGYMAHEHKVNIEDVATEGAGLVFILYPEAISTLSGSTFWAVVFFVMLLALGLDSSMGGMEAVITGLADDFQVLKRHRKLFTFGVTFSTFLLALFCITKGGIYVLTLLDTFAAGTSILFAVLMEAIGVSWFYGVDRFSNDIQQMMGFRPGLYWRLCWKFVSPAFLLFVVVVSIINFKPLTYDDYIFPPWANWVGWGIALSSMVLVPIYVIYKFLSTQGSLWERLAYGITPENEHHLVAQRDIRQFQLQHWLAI
The target in data set [12] is T8, human norepinephrine transporter (hNET). As to the kind of experiment: cell-based. The note with it: Table 6; read-out: Reuptake Inhibition [3H]NE IC50.
The target of data set [13] is T9, human serotonin transporter (hSERT) (Homo sapiens, UniProt P31645). As to the kind of experiment: biochemical. Conditions: Table 5; [125I]RTI-55; oxalate salts; read-out: SERT binding affinity Ki.
T9 sequence (P31645 whole entry): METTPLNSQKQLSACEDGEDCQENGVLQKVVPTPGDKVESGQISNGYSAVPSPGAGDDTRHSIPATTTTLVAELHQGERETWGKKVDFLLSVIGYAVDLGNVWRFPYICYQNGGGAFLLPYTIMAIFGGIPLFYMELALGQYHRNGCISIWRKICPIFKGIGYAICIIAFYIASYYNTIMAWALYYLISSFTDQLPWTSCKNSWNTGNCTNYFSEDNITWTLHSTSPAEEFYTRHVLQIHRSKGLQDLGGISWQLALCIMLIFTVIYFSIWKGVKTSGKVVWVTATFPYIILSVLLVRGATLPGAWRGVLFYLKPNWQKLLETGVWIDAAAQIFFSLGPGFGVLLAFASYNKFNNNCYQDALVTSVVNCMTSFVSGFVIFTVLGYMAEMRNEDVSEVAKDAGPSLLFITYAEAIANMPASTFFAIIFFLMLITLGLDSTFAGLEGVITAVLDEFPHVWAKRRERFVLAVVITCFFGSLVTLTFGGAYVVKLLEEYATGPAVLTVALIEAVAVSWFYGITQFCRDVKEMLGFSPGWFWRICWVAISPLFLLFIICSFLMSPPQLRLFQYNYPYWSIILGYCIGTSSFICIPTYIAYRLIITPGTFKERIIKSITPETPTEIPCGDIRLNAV
For data set [14], the target named is T9, human serotonin transporter (hSERT). As to the kind of experiment: cell-based. The note with it: Reuptake Inhibition [3H]5-HT IC50, Table 6.
Data set [15] deals with male Swiss-Webster mice. As to the kind of experiment: Cocaine/compound interaction study on locomotor activity. The note with it: 20 mg/kg of cocaine. It counts as in vivo, mouse.
Where [16] appears, read: Table 7, CHOp- cells, [3H]YM-09151-2, read-out: D2 Affinity Ki.
The mark [17] stands for this setting: Table 7, CHOp- cells, [3H]YM-09151-2, read-out: D3 Affinity Ki.
[18] abbreviates: Table 7, LHD1 cells, [3H]SCH 23,390, read-out: D1 Affinity Ki.
The mark [19] stands for this setting: Table 7, rat receptors, NIH-3T3-GF6 cells, [3H]ketanserin, read-out: 5-HT2A Affinity Ki.

One may read the melting point as the temperature, or range, at which the solid turns liquid. By IC50 is commonly meant the concentration needed to halve the response being measured. The term Ki denotes the dissociation constant of the complex between target and ligand, obtained from inhibition or displacement.

SMILES strings stand for the structures. Counter-ions that a name gives are not always drawn. Like-named read-outs stand apart in the source and are kept apart here.

T2 sequence (P14416 whole entry): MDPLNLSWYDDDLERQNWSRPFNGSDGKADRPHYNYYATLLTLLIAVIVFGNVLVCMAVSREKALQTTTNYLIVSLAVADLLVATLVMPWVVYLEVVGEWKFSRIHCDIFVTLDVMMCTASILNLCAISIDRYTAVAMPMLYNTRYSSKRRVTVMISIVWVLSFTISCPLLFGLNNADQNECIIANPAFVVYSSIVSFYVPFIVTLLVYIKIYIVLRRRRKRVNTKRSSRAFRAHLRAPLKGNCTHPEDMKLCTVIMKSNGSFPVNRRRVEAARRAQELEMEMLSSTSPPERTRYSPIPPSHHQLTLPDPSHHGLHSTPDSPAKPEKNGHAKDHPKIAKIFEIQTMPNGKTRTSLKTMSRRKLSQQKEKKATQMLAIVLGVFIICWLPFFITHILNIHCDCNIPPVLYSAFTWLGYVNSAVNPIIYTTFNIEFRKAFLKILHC
T1 sequence (P35462 whole entry): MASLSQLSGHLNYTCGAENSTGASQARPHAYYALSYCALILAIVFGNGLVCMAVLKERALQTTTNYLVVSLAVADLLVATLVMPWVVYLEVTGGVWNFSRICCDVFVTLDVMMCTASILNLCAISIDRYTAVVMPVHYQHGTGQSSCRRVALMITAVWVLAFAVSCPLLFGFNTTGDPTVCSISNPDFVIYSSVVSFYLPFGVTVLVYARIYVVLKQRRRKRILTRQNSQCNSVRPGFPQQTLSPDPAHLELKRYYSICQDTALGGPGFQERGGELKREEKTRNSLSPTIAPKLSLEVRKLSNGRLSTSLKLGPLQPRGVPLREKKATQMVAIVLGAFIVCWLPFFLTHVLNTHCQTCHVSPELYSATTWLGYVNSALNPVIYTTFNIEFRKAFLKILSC

With `Fc1ccc(C(OCCCCN2CCN(c3ccc(Cl)cc3)CC2)c2ccc(F)cc2)cc1` (as salt: oxalate) [Compound 34, 1-(4-Chlorophenyl)-4-[4-[bis(4-fluorophenyl)methoxy]butyl]piperazine], the melting point was 179 to 181 °C.
The same measure, in the same setting: under `COc1ccccc1N1CCN(CCCCOC(c2ccc(F)cc2)c2ccc(F)cc2)CC1` (as salt: oxalate) [Compound 35, 1-(2-Methoxyphenyl)-4-[4-[bis(4-fluorophenyl)methoxy]butyl]piperazine] stands 139 to 142 °C; under `O=[N+]([O-])c1ccc(N2CCN(CCCCOC(c3ccc(F)cc3)c3ccc(F)cc3)CC2)cc1` (as salt: oxalate) [Compound 38, 1-[4-Nitrophenyl]-4-[1-[bis(4-fluorophenyl)methoxy]-4-butyl]piperazine], 196 to 198 °C.
`O=C(c1ccccc1)N1CCN(CCCCOC(c2ccc(F)cc2)c2ccc(F)cc2)CC1` (as salt: oxalate) [Compound 40, 1-Benzoyl-4-[1-[bis(4-fluorophenyl)methoxy]-4-butyl]piperazine] registered a melting point of 121 to 123 °C.
Take `Fc1ccc(C(OCCCCN2CCN(Cc3ccc4c(c3)OCO4)CC2)c2ccc(F)cc2)cc1` (as salt: oxalate) [Compound 41, 1-Benzo[1,3]dioxol-5-ylmethyl-4-[4-[bis(4-fluorophenyl)methoxy]butyl]piperazine]: the melting point lay in the range of 231 to 234 °C.
Same read-out and setting: under `O=[N+]([O-])c1ccc(S(=O)(=O)N2CCN(CCCCOC(c3ccc(F)cc3)c3ccc(F)cc3)CC2)cc1` (as salt: oxalate) [Compound 42, 1-[4-[Bis(4-fluorophenyl)methoxy]butyl]-4-(4-nitrobenzenesulfonyl)piperazine] stands 170 to 173 °C.
With `Fc1ccc(C(OCCCCN2CCN(c3ccccc3)CC2)c2ccc(F)cc2)cc1` [Compound 29, 1-Phenyl-4-[4-[bis(4-fluorophenyl)methoxy]butyl]piperazine], the half-maximal inhibitory concentration (IC50) in data set [1] is 44.6 nM; in data set [6], 120 nM. Also, the Ki was 447 ± 73.9 nM in data set [2] (setting [16]); 285 ± 76.4 nM in data set [3]; above 10 µM in data set [4] (Table 7, bound given in μM, read-out: 5-HT2C Affinity Ki); 242 ± 7.41 nM in data set [5] (setting [17]); 2430 ± 367 nM in [8] (setting [18]); 404 ± 52.6 nM in data set [9] (setting [19]). Further, the “Binding Ratios NET/DAT” value in [7] was 3.3. For the same compound, the “Binding Ratios SERT/DAT” value in [7] is given as 0.8. Besides, the “Discrimination Ratios (DR) [3H]DA reuptake/DAT binding” value in [10] turned out to be 23.2.
As for `Fc1ccc(C(OCCCCN2CCN(c3ccc(Cl)cc3)CC2)c2ccc(F)cc2)cc1` [Compound 34, 1-(4-Chlorophenyl)-4-[4-[bis(4-fluorophenyl)methoxy]butyl]piperazine], the IC50 in data set [1] is 2.55 nM. Further, the “antagonistic activity at D3 site” value in data set [1] (Table 7) is “selective and strong antagonistic activity”. For the same compound, the Ki in data set [2] is above 10000 nM; in [3], above 10000 nM; in [4] it was above 10 µM; in [5], 340 ± 143 nM; in [8], above 10000 nM; in data set [9], 1150 ± 44.2 nM. For the same compound, in data set [7], the “Binding Ratios NET/DAT” value is reported as 7.6. Besides, the “Binding Ratios SERT/DAT” value in data set [7] was found to be 0.7. Also, in data set [10], the “Discrimination Ratios (DR) [3H]DA reuptake/DAT binding” value is given as 23.4.
Consider `COc1ccccc1N1CCN(CCCCOC(c2ccc(F)cc2)c2ccc(F)cc2)CC1` [Compound 35, 1-(2-Methoxyphenyl)-4-[4-[bis(4-fluorophenyl)methoxy]butyl]piperazine], for which the concentration for half-maximal inhibition (IC50) in data set [1] turned out to be 56.7 nM; in data set [12] it was 176 ± 79 nM; in data set [14] it was 1230 ± 24 nM; in data set [6] it was 84.4 nM; in [10] it was 301 ± 16 nM. For the same compound, the Ki in [2] is 134 ± 21.7 nM; in [3] it was 34.9 ± 6.7 nM; in [4], 3 ± 0.0731 µM; in data set [11], 92 ± 11 nM; in data set [5], 118 ± 31.9 nM; in data set [13], 255 ± 89 nM. Also, the Ki in [7] turned out to be 26.2 ± 2.5 nM; in [8], 777 ± 185 nM; in data set [9], 698 ± 204 nM. In addition, the “binding for 5-HT1A” value in data set [3] (Table 7) was “moderate binding”. Besides, the “Binding Ratios NET/DAT” value in data set [7] came out at 3.5. Further, the “Binding Ratios SERT/DAT” value in [7] was determined as 9.7. The “Attenuation of cocaine-induced LMA” value in data set [15] is reported as “Attenuation”. Further, the “Discrimination Ratios (DR) [3H]DA reuptake/DAT binding” value in [10] is given as 11.5.
As for `O=C(c1ccccc1)N1CCN(CCCCOC(c2ccc(F)cc2)c2ccc(F)cc2)CC1` [Compound 40, 1-Benzoyl-4-[1-[bis(4-fluorophenyl)methoxy]-4-butyl]piperazine], the 50% inhibitory concentration (IC50) in [1] came to 222 nM; in data set [12] it was 32 ± 10 nM; in data set [14], 2170 ± 370 nM; in data set [6], 183 nM; in data set [10], 640 ± 240 nM. Also, the Ki in data set [2] (setting [16]) amounted to 95.5 ± 19.7 nM; in [3] it was 1560 ± 271 nM; in data set [4] (Table 7, rat receptors, [3H]mesulergine, read-out: 5-HT2C Affinity Ki), 4.64 ± 0.586 µM; in data set [11], 365 ± 69 nM; in [5] (setting [17]), 119 ± 49.8 nM; in [13] it was 87 ± 43 nM. The inhibitory constant (Ki) in [7] was found to be 19.7 ± 2.5 nM; in data set [8] (setting [18]) it was 6640 ± 313 nM; in [9] (setting [19]) it was 4800 ± 2090 nM. In addition, in data set [7], the “Binding Ratios NET/DAT” value turned out to be 18.5. Besides, the “Binding Ratios SERT/DAT” value in data set [7] is reported as 4.4. In addition, the “Discrimination Ratios (DR) [3H]DA reuptake/DAT binding” value in [10] came out at 32.5.

The values are drawn from patent US8772319B2 (priority 2004, dated 2014).
